Patent US20040024024A1, “Aromatic sulfone hydroxamates and their use as protease inhibitors” (priority 2001, published 2004)
pIC50: −log10 of the molar value.

Key:
Assay in all cases: In vitro MMP inhibition, IC50 determination (fluorogenic substrate I)
Format in all cases: biochemical
Human recombinant MMP-2 = target: T1, Human recombinant MMP-2 (Homo sapiens, UniProt P08253)
T1 construct: made in house; host or cells: MMP-2-transfected p2AHT2 cells
T1 sequence (P08253 110-660): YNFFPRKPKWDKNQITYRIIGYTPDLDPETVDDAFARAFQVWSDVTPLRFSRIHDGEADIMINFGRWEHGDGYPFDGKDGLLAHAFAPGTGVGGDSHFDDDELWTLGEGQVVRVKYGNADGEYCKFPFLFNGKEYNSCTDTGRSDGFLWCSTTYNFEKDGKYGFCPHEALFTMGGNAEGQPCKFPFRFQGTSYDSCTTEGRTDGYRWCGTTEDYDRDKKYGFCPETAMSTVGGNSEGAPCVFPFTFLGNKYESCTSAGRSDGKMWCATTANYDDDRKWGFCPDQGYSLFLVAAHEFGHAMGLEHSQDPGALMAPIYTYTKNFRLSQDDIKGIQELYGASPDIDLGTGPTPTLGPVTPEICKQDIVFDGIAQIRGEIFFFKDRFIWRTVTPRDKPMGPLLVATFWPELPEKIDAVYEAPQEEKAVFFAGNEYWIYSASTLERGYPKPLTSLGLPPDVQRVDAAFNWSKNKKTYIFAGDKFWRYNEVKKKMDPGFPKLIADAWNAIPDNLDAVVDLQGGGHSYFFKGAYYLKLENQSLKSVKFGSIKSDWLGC
Outline: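 IC50 was derived from the concentration-dependent fall in fluorescence (ex 328, em 415 nm) on Gly-Leu cleavage of 4 μM MCA/Dpa-quenched substrate I. Assays ran at room temperature in pH 7.5 Tris/NaCl/CaCl2/Brij buffer with MMP-2 activated by trypsin or APMA; inhibitors were diluted from 1% DMSO stocks.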

Human recombinant MMP-14 = target: T2, Human recombinant MMP-14 (Homo sapiens, UniProt P50281)
T2 construct: The catalytic domain enzyme was expressed in E. coli inclusion bodies, solubilized in urea; made in house
Method: (§1) Several hydroxamates and salts thereof were analyzed in in vitro assays to determine their ability to inhibit the MMP cleavage of peptide substrates. Inhibition (Ki) and IC50 constants were calculated from the assayed hydroxamate-MMP interactions.
(§2) Human recombinant MMP-1, MMP-2, MMP-9, MMP-13, and MMP-14 were used in this assay. All enzymes were prepared in Assignee's laboratories following usual laboratory procedures. Protocols for the preparation and use of these enzymes are available in the scientific literature. See, e.g., Enzyme Nomenclature (Academic Press, San Diego, Calif., 1992) (and the citations therein). See also, Frije et al., J. Biol. Chem., 26(24), 16766-73 (1994).
The MMP-14 full length cDNA was provided by Dr. Gregory Goldberg of Washington University (St. Louis, Mo.). The catalytic domain enzyme was expressed in E. coli inclusion bodies, solubilized in urea, purified on a preparative […] reverse phase HPLC column, and then refolded in the presence of zinc acetate and purified for use.
(§3) All MMPs were activated using 4-aminophenylmercuric acetate (“APMA”, Sigma Chemical, St. Louis, Mo.) or trypsin. MMP-9 also was activated using human recombinant MMP-3 (purified in Assignee's laboratory following standard cloning and purification techniques).
(§4) Two fluorogenic, methoxycoumarin-containing polypeptide substrates were used in the MMP inhibition assays:
(§5) MCA-ProLeuGlyLeuDpaAlaArgNH2 (I)
(§6) Here, “Dpa” is 3-(2,4-dinitrophenyl)-L-2,3-diaminopropionyl group, and “MCA” is 7-methoxycoumarin-4-yl acetyl. Substrate (I) was purchased from Baychem (Redwood City, Calif.), and substrate II was prepared Assignee's laboratory. Substrate I was used in the IC50 determination assays, while substrate II was used in the Ki determination assays. In the absence of MMP inhibitory activity, either substrate is cleaved at the Gly-Leu peptide bond. This cleavage separates the highly fluorogenic peptide from the 2,4-dinitrophenyl quencher, thus resulting in increase of fluorescent intensity.
(§7) The stock solutions of the assayed hydroxamates (or salts thereof) were prepared in 1% dimethyl sulfoxide (DMSO). These stock solutions were diluted in Buffer A (100 mM Tris-HCl, 100 mM NaCl, 10 mM CaCl2, 0.05% polyoxyethylene 23 lauryl ether, pH 7.5) to obtain solutions with different hydroxamate concentrations, i.e., assay solutions with different concentrations of the assayed MMP inhibitory compound. The experiment controls contained the same amount of Buffer A/DMSO as the assayed sample, but contained no hydroxamate (or salt thereof).
(§8) The assays from which the IC50 determinations were made were performed as follows. The MMPs were activated with either trypsin or APMA (4-aminophenylmercuric acetate, Sigma Chemical, St. Louis, Mo.). The assayed hydroxamate samples were, incubated in Microfluorrm White Plates (Dynatech, Chantilly, VA) and analyzed on a Perkin Elmer L550 plate reader (Norwalk, Conn.). The excitation wavelength was 328 nm, and the emission wavelength—415 nm. All samples (assayed hydroxamates and controls) were incubated in separate plates at room temperature in the presence of 4 μM of MMP substrate (I). As stated in the previous paragraph, samples containing varying concentrations of the same assayed hydroxamate were prepared. Inhibition was measured as a reduction in fluorescent intensity as a function of MMP inhibitor concentration.

Human recombinant MMP-9 = target: T3, Human recombinant MMP-9 (Homo sapiens, UniProt P14780)
T3 construct: made in house; host or cells: MMP-9-transfected HT1080 cells (spent media)
Method: as §1, §2
The MMP-9 proenzyme was purified by gelatin Sepharose chromatography from spent media of MMP-9-transfected HT1080 cells provided by Dr. Howard Welgus of Washington University (St. Louis, Mo.).
as §3, §4, §5, §6, §7, §8

Human recombinant MMP-1 = target: T4, Human recombinant MMP-1 (Homo sapiens, UniProt P03956)
T4 construct: made in house; host or cells: MMP-1-transfected HT-1080 cells (spent media)
T4 sequence (P03956 100-469): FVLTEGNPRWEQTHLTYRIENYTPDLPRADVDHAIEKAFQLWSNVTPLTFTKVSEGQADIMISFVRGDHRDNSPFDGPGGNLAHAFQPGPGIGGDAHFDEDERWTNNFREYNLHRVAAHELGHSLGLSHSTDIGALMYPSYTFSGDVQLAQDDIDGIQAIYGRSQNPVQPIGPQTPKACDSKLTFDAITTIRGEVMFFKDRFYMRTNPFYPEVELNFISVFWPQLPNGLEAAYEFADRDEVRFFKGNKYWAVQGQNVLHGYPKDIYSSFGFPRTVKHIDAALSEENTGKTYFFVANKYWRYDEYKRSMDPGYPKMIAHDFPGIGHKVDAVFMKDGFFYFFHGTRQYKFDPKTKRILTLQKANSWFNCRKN
Method: as §1, §2
The MMP-1 proenzyme was purified from the spent media of MMP-1-transfected HT-1080 cells provided by Dr. Harold Welgus of Washington University (St. Louis, Mo.). The protein was purified on a zinc chelating column.
as §3, §4, §5, §6, §7, §8

Human recombinant MMP-13 = target: T5, Human recombinant MMP-13 (Homo sapiens, UniProt P45452)
T5 construct: made in house; host or cells: baculovirus / insect cells
Outline: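 Fluorescence at 415 nm (excitation 328 nm) reports Gly-Leu cleavage of 4 μM quenched methoxycoumarin peptide substrate I. Human recombinant MMP-13, activated by trypsin or APMA, was incubated at room temperature with varied inhibitor concentrations in pH 7.5 Tris/NaCl/CaCl2 buffer; IC50 derived from reduced fluorescence.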

[1] = value outside parentheses (Ki in parenthesis)
[2] = substrate (I) 4 μM, room temperature, values not in parenthesis

T3 sequence (P14780 107-707 limits assumed): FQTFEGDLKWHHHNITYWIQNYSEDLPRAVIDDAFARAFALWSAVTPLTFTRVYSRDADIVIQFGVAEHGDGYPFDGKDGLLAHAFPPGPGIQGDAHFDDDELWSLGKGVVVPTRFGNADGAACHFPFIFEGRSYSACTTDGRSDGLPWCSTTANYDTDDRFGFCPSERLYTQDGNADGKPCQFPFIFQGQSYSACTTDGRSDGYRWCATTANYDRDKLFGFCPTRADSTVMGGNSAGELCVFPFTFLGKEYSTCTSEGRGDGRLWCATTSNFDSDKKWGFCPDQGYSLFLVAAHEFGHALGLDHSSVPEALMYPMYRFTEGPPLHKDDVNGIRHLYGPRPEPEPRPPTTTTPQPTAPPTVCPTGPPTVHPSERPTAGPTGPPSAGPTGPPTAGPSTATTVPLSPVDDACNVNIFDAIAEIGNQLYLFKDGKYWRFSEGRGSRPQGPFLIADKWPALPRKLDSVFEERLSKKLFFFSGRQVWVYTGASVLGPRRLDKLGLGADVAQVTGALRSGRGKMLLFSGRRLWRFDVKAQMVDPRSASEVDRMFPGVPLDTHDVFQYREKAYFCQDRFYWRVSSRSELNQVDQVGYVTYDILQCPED

Structure (SMILES) | pIC50 (Human recombinant MMP-2; [1]) | pIC50 (Human recombinant MMP-14; [1]) | pIC50 (Human recombinant MMP-9; [1]) | pIC50 (Human recombinant MMP-1; [1]) | pIC50 (Human recombinant MMP-13; [1]) | further results
CN(C)c1ccc(C(=O)NCCCOc2ccc(S(=O)(=O)C3(C(=O)NO)CCOCC3)cc2)cc1 [Example 361] | 6.30 | < 5.00 | < 5.00 | 5.22 | 9.30 | –
O=C(NCCCOc1ccc(S(=O)(=O)C2(C(=O)NO)CCOCC2)cc1)c1cc2ccccc2cc1O [Example 376] | 6.44 | < 5.00 | < 5.00 | < 5.00 | 9.10 | –
Cc1cccc(-c2nnc(CCCOc3ccc(S(=O)(=O)C4(C(=O)NO)CCOCC4)cc3)o2)c1 [Example 258] | – | – | – | – | – | pIC50 (Human recombinant MMP-2; value outside parenthesis): 6.76; pIC50 (Human recombinant MMP-14; value outside parenthesis): < 5.00; pIC50 (Human recombinant MMP-9; value outside parenthesis): 5.71; pIC50 (Human recombinant MMP-1; value outside parenthesis): < 5.00; pIC50 (Human recombinant MMP-13; value outside parenthesis): 8.77
CCOc1ccc(-c2noc(CCCOc3ccc(S(=O)(=O)C4(C(=O)NO)CCN(C5CC5)CC4)cc3)n2)cc1 [Example 268] | – | – | – | – | – | pIC50 (Human recombinant MMP-2; value outside parenthesis): 6.90; pIC50 (Human recombinant MMP-14; value outside parenthesis): < 5.00; pIC50 (Human recombinant MMP-9; value outside parenthesis): 6.17; pIC50 (Human recombinant MMP-1; value outside parenthesis): < 5.00; pIC50 (Human recombinant MMP-13; value outside parenthesis): 8.60
O=C1c2ccccc2C(=O)N1CCCCc1ccc(S(=O)(=O)C2(C(=O)NO)CCOCC2)cc1 [Example 35] | – | – | – | – | – | pIC50 (Human recombinant MMP-2; [2]): 6.22; pIC50 (Human recombinant MMP-14; [2]): < 5.00; pIC50 (Human recombinant MMP-9; [2]): < 5.00; pIC50 (Human recombinant MMP-1; [2]): < 5.00; pIC50 (Human recombinant MMP-13; [2]): 8.52

More lines, in order of rising pIC50 (Human recombinant MMP-2; [1]), values ahead:

pIC50 (Human recombinant MMP-2; [1]) | pIC50 (Human recombinant MMP-14; [1]) | pIC50 (Human recombinant MMP-9; [1]) | pIC50 (Human recombinant MMP-1; [1]) | pIC50 (Human recombinant MMP-13; [1]) | Structure (SMILES) | further results
7.17 | < 5.00 | < 5.00 | < 5.00 | 8.40 | COc1ccc(C(=O)N2CCC(COc3ccc(S(=O)(=O)C4(C(=O)NO)CCOCC4)cc3)CC2)cc1 [Example 420] | –
7.29 | < 5.00 | 5.28 | < 5.00 | 9.05 | CC(C)(C)c1ccc(C(=O)CCCCOc2ccc(S(=O)(=O)C3(C(=O)NO)CCOCC3)cc2)cc1 [Example 327] | –
7.96 | 5.19 | 7.74 | < 5.00 | 8.15 | O=C(NO)C1(S(=O)(=O)c2ccc(NCCCCc3ccccc3)cc2)CCOCC1 [Example 462] | –
8.13 | 5.08 | 6.58 | < 5.00 | 9.52 | O=C(CCCCOc1ccc(S(=O)(=O)C2(C(=O)NO)CCOCC2)cc1)c1ccccc1 [Example 326] | –
8.59 | < 5.00 | 5.70 | < 5.00 | 9.05 | COc1ccc(-c2nnc(CCCCOc3ccc(S(=O)(=O)C4(C(=O)NO)CCOCC4)cc3)o2)cc1 [Example 346] | –
